Tests used:
BT-474 cells = assay: Cell growth inhibition assay (CellTiter 96 AQueous One Solution Cell Proliferation Assay); type: cell-based, human; details: single inhibitor at different concentrations (FIG. 11A)
Experimental: (§1) Cell growth inhibition assays were performed with the CellTiter 96 AQueous One Solution Cell Proliferation Assay (Promega) according to the manufacturer's recommendations.

MDA-MB-231 cells = assay: as above; type: cell-based, human; details: single inhibitor at different concentrations (FIG. 11A)
Experimental: as §1

SK-BR-3 cells = assay: as above; type: cell-based, human; details: single inhibitor at different concentrations (FIG. 11A)
Experimental: as §1

MCF-7 cells = assay: as above; type: cell-based, human; details: single inhibitor at different concentrations (FIG. 11A)
Experimental: as §1

[1] = system: pTyr-including peptides from pervanadate-treated Jurkat cells; assay: Enrichment of pTyr-including peptides from pervanadate-treated Jurkat cells by affinity reagents, 1D LC-MS/MS; design: species or system human; details: 3 mg Jurkat peptides
Experimental: Experiments were conducted to determine the relative efficacy of the variant Src SH2 domains and commonly used anti-pTyr antibodies as affinity reagents for pTyr-including peptides from biological samples. His6/GST-tagged TrM Src SH2 domain (SEQ ID NO: 11) and His6-tagged QuadM Src SH2 domain (SEQ ID NO: 13), as well as anti-pTyr antibodies, were prepared in functionally-equivalent molar amounts by using half the molar amount of the antibodies relative to the SH2 domain variants given that each antibody molecule has two binding sites for its antigen.
The first experiment tested the relative ability of the following affinity reagents to extract pTyr-including peptides from a peptide mixture prepared from Jurkat cells: a His6/GST-tagged TrM Src SH2 (SEQ ID NO: 11), a His6-tagged QuadM Src SH2 (SEQ ID NO: 13), the anti-pTyr antibody 4G10 (agarose conjugate, obtained from Millipore), and a mixture of commercially-available anti-pTyr antibodies. […] The two SH2 affinity reagents were also tested at a 30× amount; the antibodies were not tested at a 30× amount due to the prohibitive cost of doing so. The purified SH2 affinity reagents were prepared as described in Example 1. The antibody mixture contained 4G10 (as above), PY99 (obtained from Santa Cruz Biotechnology), and P-Tyr-100 (slurry of PTMScan® Phospho-Tyrosine Mouse mAb, obtained from Cell Signaling Technology). Since the concentration of P-Tyr-100 is unknown, the amount was used as recommended by the vendor (i.e., 4 μL for 1 mg peptide digest).
FIG. 2A presents a schematic of the experimental design. Each amount of His6-tagged SH2 domain variant or antibody was subjected to a binding experiment with 3 mg of a peptide mixture prepared from pervanadate-treated Jurkat cells.
Jurkat cells (obtained from ATCC) were cultured in a humidified atmosphere of 5% CO2 at 37° C. in Roswell Park Memorial Institute 1640 medium (RPMI-1640) supplemented with 10% bovine serum and 100 U/mL of streptomycin and penicillin.
The cells were again collected by centrifugation. The cell pellets were gently homogenized in an ice-cold lysis buffer containing 8 M urea, 50 mM tris(hydroxymethyl)aminomethane (Tris)-HCl (pH 7.4), 2% protease inhibitor cocktail (v/v, obtained from Sigma-Aldrich), 1% Triton X-100 (v/v), 1 mM NaF, and 1 mM Na3VO4, followed by sonication at 400 W for 120 s. After centrifugation at 25,000 g for 1 h, proteins were precipitated in ice-cold acetone/ethanol/acetic acid (50/50/0.1, V/V/V) solution. Subsequently, the proteins were diluted in reducing buffer containing 100 mM triethylammonium bicarbonate (TEAB) buffer (pH 8.2) and 8 M urea, and the final protein concentration was determined by Bradford assay. The protein suspension was reduced in 10 mM dithiothreitol (DTT) at 37° C. for 2 h, and it was then alkylated in 20 mM iodoacetamide (IAA) in darkness at room temperature for another 30 min. Trypsin digestion was performed at 37° C. overnight with an enzyme-to-protein ratio of 1/25 (w/w). The resulting peptide mixture was stored at −80° C. for further analysis.
Desalted Jurkat peptides (30 mg) were dissolved in ice-cold immunoaffinity purification (IAP) buffer and then split into 10 aliquots with 3 mg of Jurkat peptides each. Binding experiments were performed with the amounts of antibody (1×, 5×) or SH2 domain variant (1×, 5×, 30×) set out in Table 1 and FIG. 2A.
For antibody-based enrichment, 4G10 or the antibody mixture was incubated with the sample at 4° C. overnight while rotating. The beads were washed three times with ice-cold IAP buffer and twice with ice-cold water. To release the bound peptides, the beads were eluted twice with 200 μL 0.15% trifluoroacetic acid (TFA) for 15 min at room temperature.
For SH2-based enrichment, Ni-NTA beads containing the purified SH2 proteins were washed extensively in twenty column volumes of PBS buffer (pH 7.0) containing 20 mM imidazole. […] The washed beads were incubated with the peptide mixture at 4° C. overnight while rotating. […]

[2] = system: pTyr-including peptide found in the sequence of the receptor tyrosine kinase EGFR; assay: Binding of wild-type and TrM Fyn SH2 domain to EGFR pTyr peptide
From the text: The relative affinity of a variant SH2 domain, including a SH2 Superbinder, can be readily assessed compared to the affinity of the relevant parent SH2 domain, using binding assays known in the art, including as described in Kaneko, T. et al., “SH2 Superbinders act as antagonists of cell signaling”, (2012) Sci. Signal. 5: ra68; and U.S. patent application Ser. No. 14/388,592.

[3] = target: pTyr-including peptide found in the sequence of the receptor tyrosine kinase EGFR (Homo sapiens, UniProt P06241, K204L/S186A/T181V); details: read-out: equilibrium dissociation constant (Kd); cited from earlier work
[4] = target: pTyr-including peptide found in the sequence of the receptor tyrosine kinase EGFR (Homo sapiens, UniProt P06241); details: cited from earlier work

**Q.** With `CCN1CCN(Cc2ccc(C(=O)Nc3ccc(C)c(Oc4ccc5c(c4)CC(=O)N5)c3)cc2C(F)(F)F)CC1` [DDR1-IN-1] as the molecule, how does the “proliferation relative to no drug exposure” value (BT-474 cells) read?
**A.** Its value is “neither inhibitor had an effect”.

**Q.** What about the “proliferation relative to no drug exposure” value (MDA-MB-231 cells) of the same molecule?
**A.** Its value is “neither inhibitor had an effect”.

**Q.** What about the “proliferation relative to no drug exposure” value (SK-BR-3 cells) of the same molecule?
**A.** Its value is “neither inhibitor had an effect”.

**Q.** For `CNC(=O)c1c(F)cccc1Nc1nc(Nc2cc3c(cc2OC)CCN3C(=O)CN(C)C)nc2[nH]ccc12` [GSK1838705], which “proliferation relative to no drug exposure” value (BT-474 cells) is on record?
**A.** Its value is “neither inhibitor had an effect”.

**Q.** What about the “proliferation relative to no drug exposure” value (MCF-7 cells) of the same molecule?
**A.** The value was “inhibited the proliferation of MCF-7 in a dose-dependent manner”.

**Q.** What about the “proliferation relative to no drug exposure” value (MDA-MB-231 cells) of the same molecule?
**A.** The value was “neither inhibitor had an effect”.

**Q.** And the “proliferation relative to no drug exposure” value (SK-BR-3 cells)?
**A.** Its value is “neither inhibitor had an effect”.

**Q.** For `CS(=O)(=O)CCNCc1ccc(-c2ccc3ncnc(Nc4ccc(OCc5cccc(F)c5)c(Cl)c4)c3c2)o1` [lapatinib], which “proliferation relative to no drug exposure” value (BT-474 cells) is on record?
**A.** The value was “sensitive”.

**Q.** And the “proliferation relative to no drug exposure” value (MCF-7 cells)?
**A.** Its value is “insensitive”.

**Q.** And the “proliferation relative to no drug exposure” value (MDA-MB-231 cells)?
**A.** The value was “insensitive”.

**Q.** And the “proliferation relative to no drug exposure” value (SK-BR-3 cells)?
**A.** Its value is “sensitive”.

B1: QuadM Src SH2: TrM human Src SH2 domain variant with additional mutation Thr218Trp in its specificity-binding pocket; His6-tagged form SEQ ID NO: 13 (protein)
chain: DSIQAEEWYFGKITRRESERLLLNAENPRGTFLVRESETVKGAYALSVSDFDNAKGLNVKHYLIRKLDSGGFYIWSRTQFNSLQQLVAYYSKHADGLCHRLTTVCPTSK
modifications: SH2 protein domain; QuadM human Src SH2 domain
**Q.** What does the source list for B1?
**A.** Number of pTyr sites identified ([1]; 0.375 nmol (1x) pTyr-binding sites): 679; Number of pTyr sites identified ([1]; 1.875 nmol (5x) pTyr-binding sites): 938; Number of pTyr sites identified ([1]; 11.25 nmol (30x) pTyr-binding sites): 1186

B2: TrM Fyn SH2 domain: variant human Fyn SH2 domain with Thr181Val, Ser186Ala and Lys204Leu (protein)
chain: APVDSIQAEEWYFGKLGRKDAERQLLSFGNPRGTFLIRESETVKGAYALSIRDWDDMKGDHVKHYLIRKLDNGGYYITTRAQFETLQQLVQHYSERAAGLCCRLVVPCHKG
modifications: SH2 protein domain; TrM human Fyn SH2 domain
notes: variant human Fyn SH2 domain with Thr181Val, Ser186Ala and Lys204Leu
**Q.** For B2, which “fold tighter binding than wild-type Fyn SH2 domain” value [2] is on record?
**A.** The value was “around 380 fold”.

**Q.** What about the Kd [3] of the same molecule?
**A.** Its Kd is 9.7 nM.

B3: wild-type Fyn SH2 domain: wild-type human Fyn SH2 domain (protein)
chain: APVDSIQAEEWYFGKLGRKDAERQLLSFGNPRGTFLIRESETTKGAYSLSIRDWDDMKGDHVKHYKIRKLDNGGYYITTRAQFETLQQLVQHYSERAAGLCCRLVVPCHKG
modifications: SH2 protein domain; Wild-type human Fyn SH2 domain
**Q.** With B3 as the molecule, how does the Kd [4] read?
**A.** Its Kd is 3700 nM.
